Values of other authors, collected in paper PMC10410440, “Preclinical PK investigation of a novel IDO1/TDO dual inhibitor—SHR9146 in mouse plasma and tissues by LC-MS/MS” (Frontiers in Oncology, 2023).

Design: method as in PMID 31221619
Details: phase III trial; epacadostat combined with a PD-1 checkpoint inhibitor compared with pembrolizumab alone; cited from earlier work

NS(=O)(=O)NCCNc1nonc1C(=NO)Nc1ccc(F)c(Br)c1 [epacadostat]
progression-free survival rate: no significant improvement
